# Measured values as given in US20250332300A1 (priority 2024, published 2025).
# Where two headings read alike, the source gives them in different places.
# Legend:
# [1] = assay type: physicochemical
# Experimental: Radio-HPLC Analytical Method: Eluent A: Water+0.1% TFA; Eluent B: ACN+0.1% TFA; Column temperature: 25° C.; Flow: 1.0 mL/min; Column: […] Gradient: hold 10% B for 1 min, from 10 to 80% B in 8 min, hold 80% B for 2 min, from 80 to 15% B in 1 min. Radio-iTLC Analytical Method: […] For Lu-177 and Ga-68, the radiotracer-spotted iTLC plates were directly read in a radio-TLC scanner after developing in a sodium citrate 0.1M (pH 4.6) mobile phase. Rf([^177Lu/^68Ga]Lu/Ga-labeled compounds)=0.0-0.5 and Rf (unchelated ^177Lu^3+/^68Ga^3+)=0.5-1.0. The initial radiochemical purity of the [^177Lu]Lu-labeled compounds was analyzed by […] and […] and the stability in solution at 24° C. was evaluated after the end of synthesis by radio-HPLC.
# mouse HER2 (23-653) [2] = target: T1, mouse HER2 (23-653) (Mus musculus, UniProt P70424); experiment: TR-FRET competition assay for peptide potency, mouse HER2; assay type: binding; design: mouse HER2 (23-653) using a Cy5 labeled peptide as a probe; made in house; host or cells: mammalian cells; conditions: TR-FRET competition with Cy5 labeled peptide probe, 0.1 nM mouse HER2, 24 h incubation; read-out: moHER2 TR-FRET IC50
# human HER3 = human HER3 (Homo sapiens, UniProt P21860); experiment: SPR selectivity over close protein homologs, HER3; assay type: binding; conditions: protein homolog immobilized on a CM5 chip
# Sequence of human HER3 (P21860 20-1342): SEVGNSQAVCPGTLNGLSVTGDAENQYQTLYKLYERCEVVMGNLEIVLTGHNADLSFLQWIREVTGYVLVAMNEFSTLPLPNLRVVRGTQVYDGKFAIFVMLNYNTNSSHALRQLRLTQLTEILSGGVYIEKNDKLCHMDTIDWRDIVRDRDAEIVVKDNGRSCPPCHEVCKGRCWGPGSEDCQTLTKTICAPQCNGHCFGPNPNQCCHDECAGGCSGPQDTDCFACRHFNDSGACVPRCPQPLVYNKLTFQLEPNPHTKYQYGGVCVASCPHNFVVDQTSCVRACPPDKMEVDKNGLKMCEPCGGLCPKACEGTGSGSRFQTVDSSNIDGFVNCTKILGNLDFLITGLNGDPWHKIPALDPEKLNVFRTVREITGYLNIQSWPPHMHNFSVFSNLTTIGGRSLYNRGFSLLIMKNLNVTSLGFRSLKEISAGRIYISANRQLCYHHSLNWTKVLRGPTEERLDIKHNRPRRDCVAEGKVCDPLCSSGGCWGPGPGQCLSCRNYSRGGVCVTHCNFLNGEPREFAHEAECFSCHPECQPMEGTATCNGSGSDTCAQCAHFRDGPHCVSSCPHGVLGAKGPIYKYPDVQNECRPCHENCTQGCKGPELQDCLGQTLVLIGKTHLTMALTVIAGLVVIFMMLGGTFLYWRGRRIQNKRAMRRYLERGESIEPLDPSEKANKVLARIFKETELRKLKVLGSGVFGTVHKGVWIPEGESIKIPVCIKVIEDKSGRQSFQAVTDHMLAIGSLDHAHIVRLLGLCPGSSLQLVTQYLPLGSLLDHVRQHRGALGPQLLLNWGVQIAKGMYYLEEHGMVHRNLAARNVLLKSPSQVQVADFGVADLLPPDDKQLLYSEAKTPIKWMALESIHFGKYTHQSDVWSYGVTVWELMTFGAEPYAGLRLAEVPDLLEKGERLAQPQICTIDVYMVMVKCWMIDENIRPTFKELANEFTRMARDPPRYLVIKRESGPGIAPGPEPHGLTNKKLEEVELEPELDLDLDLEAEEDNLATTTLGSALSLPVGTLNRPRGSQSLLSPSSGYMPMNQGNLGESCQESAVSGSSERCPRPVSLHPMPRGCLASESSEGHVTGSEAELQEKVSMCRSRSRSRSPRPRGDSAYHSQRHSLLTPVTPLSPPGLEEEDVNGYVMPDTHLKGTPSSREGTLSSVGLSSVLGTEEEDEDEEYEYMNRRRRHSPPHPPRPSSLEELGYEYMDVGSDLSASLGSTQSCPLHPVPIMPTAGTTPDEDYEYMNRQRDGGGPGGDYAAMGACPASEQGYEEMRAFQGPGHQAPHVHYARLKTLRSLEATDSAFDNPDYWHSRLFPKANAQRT
# human HER2 (23-652) [3] = target: T2, human HER2 (23-652) (Homo sapiens, UniProt P04626); experiment: Surface plasmon resonance (SPR) for assessment of peptide affinity, human HER2; assay type: binding; design: towards human HER2 (23-652) and mouse HER2 (23-653); made in house; conditions: SPR, human HER2 extracellular domain, 25° C., 1:1 binding model; read-out: huHER2-SPR-ONC KD
# Summary of the method: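 Binding kinetics fitted from sensorgrams with 280 s peptide association then 3000 s dissociation (30 uL/min), using HER2 (23-652) either directly immobilized (SA/CM5) or anti-Fc-captured; 3 M magnesium chloride used for regeneration.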
# human EGFR = human EGFR (Homo sapiens, UniProt P00533); experiment: SPR selectivity over close protein homologs, EGFR; assay type: binding; conditions: protein homolog immobilized on a CM5 chip
# Sequence of human EGFR (P00533 25-1210): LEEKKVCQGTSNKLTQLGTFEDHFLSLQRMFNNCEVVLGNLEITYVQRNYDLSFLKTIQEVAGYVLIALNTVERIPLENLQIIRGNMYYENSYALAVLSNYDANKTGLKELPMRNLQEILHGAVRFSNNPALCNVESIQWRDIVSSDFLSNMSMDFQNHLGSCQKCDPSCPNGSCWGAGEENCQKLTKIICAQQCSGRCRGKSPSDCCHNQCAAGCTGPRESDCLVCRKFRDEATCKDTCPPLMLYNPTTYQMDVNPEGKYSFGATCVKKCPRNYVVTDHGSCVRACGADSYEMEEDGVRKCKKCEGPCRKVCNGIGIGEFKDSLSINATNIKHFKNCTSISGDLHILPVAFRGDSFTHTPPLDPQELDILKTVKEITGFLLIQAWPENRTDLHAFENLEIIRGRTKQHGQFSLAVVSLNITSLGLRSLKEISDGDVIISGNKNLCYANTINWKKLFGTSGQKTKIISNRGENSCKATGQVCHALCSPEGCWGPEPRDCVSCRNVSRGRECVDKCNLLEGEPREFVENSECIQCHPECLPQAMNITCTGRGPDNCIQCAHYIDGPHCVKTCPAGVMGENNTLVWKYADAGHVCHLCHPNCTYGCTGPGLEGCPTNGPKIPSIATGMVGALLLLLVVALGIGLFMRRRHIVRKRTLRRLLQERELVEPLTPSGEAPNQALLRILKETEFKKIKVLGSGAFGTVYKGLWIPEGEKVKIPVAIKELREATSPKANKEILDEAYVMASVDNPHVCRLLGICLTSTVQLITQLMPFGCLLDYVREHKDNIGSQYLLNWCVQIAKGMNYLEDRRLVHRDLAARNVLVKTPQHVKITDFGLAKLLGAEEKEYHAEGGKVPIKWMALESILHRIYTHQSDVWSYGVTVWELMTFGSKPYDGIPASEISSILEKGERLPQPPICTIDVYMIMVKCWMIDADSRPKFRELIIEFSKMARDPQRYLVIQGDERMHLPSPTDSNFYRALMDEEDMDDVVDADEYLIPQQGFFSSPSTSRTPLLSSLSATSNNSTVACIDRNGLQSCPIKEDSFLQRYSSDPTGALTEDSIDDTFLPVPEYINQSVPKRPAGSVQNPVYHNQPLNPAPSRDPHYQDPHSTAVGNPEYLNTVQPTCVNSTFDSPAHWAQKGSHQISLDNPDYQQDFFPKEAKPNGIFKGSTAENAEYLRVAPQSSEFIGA
# human HER2 (23-652) [4] = target: T2, human HER2 (23-652); experiment: TR-FRET competition assay for peptide potency, human HER2; assay type: binding; design: towards human HER2 (23-652) and mouse HER2 (23-653); made in house; host or cells: mammalian cells; conditions: read-out: huHER2 TR-FRET IC50
# [5] = target: human Herstatin (a soluble truncated HER2 protein) (Homo sapiens, UniProt P04626); experiment: SPR selectivity over close protein homologs, Herstatin; assay type: binding; conditions: protein homolog immobilized on a CM5 chip
# mouse HER2 (23-653) [6] = target: T1, mouse HER2 (23-653); experiment: Surface plasmon resonance (SPR) for assessment of peptide affinity, mouse HER2; assay type: binding; design: mouse HER2 (23-653) using a Cy5 labeled peptide as a probe; made in house; conditions: SPR, mouse HER2 extracellular domain, 25° C., 1:1 binding model; read-out: moHER2-SPR-ONC KD
# Text: Each protein was immobilized either onto a SA sensorchip (Cytiva, BR-1005-31) or CM5 sensorchip (Cytiva, BR-1005-30) to a density of 800-2000 RU.
# Target sequence in this assay (P70424 23-653): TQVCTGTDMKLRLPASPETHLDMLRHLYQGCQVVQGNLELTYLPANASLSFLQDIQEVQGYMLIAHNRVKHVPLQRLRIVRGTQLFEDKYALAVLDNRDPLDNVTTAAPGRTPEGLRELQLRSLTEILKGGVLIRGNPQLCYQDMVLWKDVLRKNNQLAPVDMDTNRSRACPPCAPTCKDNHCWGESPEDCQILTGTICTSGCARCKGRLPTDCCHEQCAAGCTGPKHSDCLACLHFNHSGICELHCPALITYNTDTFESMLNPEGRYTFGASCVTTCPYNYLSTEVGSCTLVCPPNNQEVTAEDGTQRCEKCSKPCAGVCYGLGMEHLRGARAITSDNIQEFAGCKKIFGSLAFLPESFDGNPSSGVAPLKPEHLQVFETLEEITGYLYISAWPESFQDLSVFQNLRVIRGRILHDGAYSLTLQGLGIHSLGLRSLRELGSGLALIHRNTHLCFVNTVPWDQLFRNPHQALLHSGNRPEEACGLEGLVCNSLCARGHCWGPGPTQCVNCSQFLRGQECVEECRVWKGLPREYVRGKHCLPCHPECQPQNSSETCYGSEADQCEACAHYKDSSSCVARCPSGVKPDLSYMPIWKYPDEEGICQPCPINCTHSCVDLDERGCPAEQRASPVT
# human HER4 = human HER4 (Homo sapiens, UniProt Q15303); experiment: SPR selectivity over close protein homologs, HER4; assay type: binding; conditions: protein homolog immobilized on a CM5 chip
# Sequence of human HER4 (Q15303 26-1308): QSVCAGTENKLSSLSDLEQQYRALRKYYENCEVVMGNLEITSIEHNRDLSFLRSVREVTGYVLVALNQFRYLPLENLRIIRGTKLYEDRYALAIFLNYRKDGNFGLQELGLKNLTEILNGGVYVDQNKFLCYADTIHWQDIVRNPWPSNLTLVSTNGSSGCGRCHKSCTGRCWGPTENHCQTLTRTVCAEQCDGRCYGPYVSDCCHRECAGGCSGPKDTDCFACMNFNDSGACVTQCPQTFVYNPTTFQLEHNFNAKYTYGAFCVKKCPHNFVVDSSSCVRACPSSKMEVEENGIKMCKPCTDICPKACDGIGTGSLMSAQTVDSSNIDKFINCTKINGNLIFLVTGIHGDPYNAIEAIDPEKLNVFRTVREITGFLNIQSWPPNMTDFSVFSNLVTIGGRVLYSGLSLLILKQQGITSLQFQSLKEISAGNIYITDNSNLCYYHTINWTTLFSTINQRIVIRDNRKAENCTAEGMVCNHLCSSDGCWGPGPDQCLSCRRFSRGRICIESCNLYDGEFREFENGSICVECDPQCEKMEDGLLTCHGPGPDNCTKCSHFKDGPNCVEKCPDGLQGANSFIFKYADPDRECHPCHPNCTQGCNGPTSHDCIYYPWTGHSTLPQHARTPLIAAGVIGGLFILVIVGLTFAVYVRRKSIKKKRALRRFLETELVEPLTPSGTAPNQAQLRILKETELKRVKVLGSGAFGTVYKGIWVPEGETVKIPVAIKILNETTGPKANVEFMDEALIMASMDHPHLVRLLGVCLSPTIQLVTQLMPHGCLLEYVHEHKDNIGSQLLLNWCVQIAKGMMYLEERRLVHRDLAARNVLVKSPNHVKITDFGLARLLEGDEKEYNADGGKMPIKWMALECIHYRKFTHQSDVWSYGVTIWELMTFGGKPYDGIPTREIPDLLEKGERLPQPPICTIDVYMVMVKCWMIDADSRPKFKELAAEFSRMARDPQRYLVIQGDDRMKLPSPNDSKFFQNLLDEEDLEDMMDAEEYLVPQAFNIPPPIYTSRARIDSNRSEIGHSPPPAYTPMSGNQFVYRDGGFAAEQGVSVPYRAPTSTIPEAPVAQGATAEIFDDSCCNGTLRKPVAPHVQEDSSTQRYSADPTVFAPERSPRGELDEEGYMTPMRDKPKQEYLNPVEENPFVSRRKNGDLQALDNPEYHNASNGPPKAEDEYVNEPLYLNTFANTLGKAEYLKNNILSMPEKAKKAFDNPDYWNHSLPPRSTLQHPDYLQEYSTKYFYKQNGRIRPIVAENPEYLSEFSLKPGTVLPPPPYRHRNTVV
# [7] = amide bond, 30-membered ring, PyAOP/DIEA, DMF, resin, […], 50.0 °C, with chain assembly
compound,measurement,setting,value
"CC(=O)NCCCC[C@H]1C(=O)N[C@@H](Cc2c[nH]c3ccc(O)cc23)C(=O)N[C@@H](Cc2c[nH]c3ccccc23)C(=O)N[C@@H](C2CC2)C(=O)N(C)[C@H](C(=O)N(C)[C@@H](Cc2ccc(F)cc2)C(=O)N[C@@H](CCCCNC(=O)CN2CCN(CC(=O)O)CCN(CC(=O)O)CCN(CC(=O)O)CC2)C(N)=O)CNC(=O)CCC[C@H](NC(C)=O)C(=O)N[C@H](Cc2ccc(O)cc2)C(=O)N[C@H](CO)C(=O)N(C)[C@@H](CCc2ccccc2)C(=O)N1C [Example H4, Example B4 labelled with ^177Lu, metal not drawn]","Radiochemical purity by radio-HPLC, stability in solution, 5 h (%)",[1],98.6%
same,"Radiochemical purity by radio-HPLC, stability in solution, 24 h (%)",[1],98.2%
same,"Radiochemical purity by radio-HPLC, stability in solution, 48 h (%)",[1],97.6%
same,"Radiochemical purity by radio-HPLC, stability in solution, 72 h (%)",[1],97.8%
"2-((1E,3E)-5-((E)-1-(6-((3-(((3S,6S,9S,12S,15S,18S,21S,24S,27S)-9-((1H-indol-3-yl)methyl)-15-(4-acetamidobutyl)-3-(((S)-1-(((S)-1-amino-6-(4-(carboxymethyl)piperazine-1-carboxamido)-1-oxohexan-2-yl)amino)-3-(4-fluorophenyl)-1-oxopropan-2-yl)(methyl)carbamoyl)-12-((5-hydroxy-1H-indol-3-yl)methyl)-24-(4-hydroxybenzyl)-6-((S)-1-hydroxyethyl)-21-(hydroxymethyl)-4,16,19-trimethyl-5,8,11,14,17,20,23,26,30-nonaoxo-18-phenethyl-1,4,7,10,13,16,19,22,25-nonaazacyclotriacontan-27-yl)amino)-3-oxopropyl)amino)-6-oxohexyl)-3,3-dimethyl-5-sulfoindolin-2-ylidene)penta-1,3-dien-1-yl)-1-ethyl-3,3-dimethyl-3H-indol-1-ium-5-sulfonate TFA salt","ring closure, yield after HPLC",[7],2%
CC(=O)NCCCC[C@H]1C(=O)N[C@@H](Cc2c[nH]c3ccc(O)cc23)C(=O)N[C@@H](Cc2c[nH]c3ccccc23)C(=O)N[C@@H](C2CC2)C(=O)N(C)[C@H](C(=O)N(C)[C@@H](Cc2ccc(F)cc2)C(=O)N[C@@H](CCCCNC(=O)CN2CCN(CC(=O)O)CCN(CC(=O)O)CCN(CC(=O)O)CC2)C(N)=O)CNC(=O)CCC[C@H](NC(C)=O)C(=O)N[C@H](Cc2ccc(O)cc2)C(=O)N[C@H](CO)C(=O)N(C)[C@@H](CCc2ccccc2)C(=O)N1C [Example B4],IC50,mouse HER2 (23-653) [2],> 1 µM
same,Kd,human HER3,> 6 µM
same,Kd,human HER2 (23-652) [3],> 6 µM
same,Kd,human EGFR,> 6 µM
same,IC50,human HER2 (23-652) [4],> 1 µM
same,Kd,[5],> 6 µM
same,Kd,mouse HER2 (23-653) [6],> 6 µM
same,Kd,human HER4,> 6 µM
"4-(((3S,6S,9S,12S,15S,18S,21S,24S,27S)-9-((1H-indol-3-yl)methyl)-15-(4-acetamidobutyl)-6-cyclopropyl-3-(((S)-1-(((S)-1,6-diamino-1-oxohexan-2-yl)amino)-3-(4-fluorophenyl)-1-oxopropan-2-yl)(methyl)carbamoyl)-12-((5-hydroxy-1H-indol-3-yl)methyl)-24-(4-hydroxybenzyl)-21-(hydroxymethyl)-4,16,19-trimethyl-5,8,11,14,17,20,23,26,31-nonaoxo-18-phenethyl-1,4,7,10,13,16,19,22,25-nonaazacyclohentriacontan-27-yl)amino)-4-oxobutanoic acid TFA salt","ring closure, yield after HPLC","amide bond, 31-membered ring, PyAOP/Et3N, then TFA, DCM, 0.79 mM, 2 steps",61%
"2-(4-(((S)-5-((S)-2-((3S,6S,9S,12S,15S,18S,21S,24S,27S)-9-((1H-indol-3-yl)methyl)-15-(4-acetamidobutyl)-27-(5,39-dioxo-43-((3aS,4S,6aR)-2-oxohexahydro-1H-thieno[3,4-d]imidazol-4-yl)-8,11,14,17,20,23,26,29,32,35-decaoxa-4,38-diazatritetracontanamido)-12-((5-hydroxy-1H-indol-3-yl)methyl)-24-(4-hydroxybenzyl)-6-((S)-1-hydroxyethyl)-21-(hydroxymethyl)-N,4,16,19-tetramethyl-5,8,11,14,17,20,23,26,30-nonaoxo-18-phenethyl-1,4,7,10,13,16,19,22,25-nonaazacyclotriacontane-3-carboxamido)-3-(4-fluorophenyl)propanamido)-6-amino-6-oxohexyl)carbamoyl)piperazin-1-yl) acetic acid TFA salt","ring closure, yield after HPLC",[7],0.5%
"(3R,6S,9S,12S,15S,18S,21S,24S,27S)-9-((1H-indol-3-yl)methyl)-27-amino-N—((S)-1-amino-3-(4-fluorophenyl)-1-oxopropan-2-yl)-6-cyclopropyl-12-((5-hydroxy-1H-indol-3-yl)methyl)-24-(4-hydroxybenzyl)-15,21-bis(hydroxymethyl)-N,4,16,19-tetramethyl-5,8,11,14,17,20,23,26,30-nonaoxo-18-phenethyl-1-thia-4,7,10,13,16,19,22,25,29-nonaazacyclohentriacontane-3-carboxamide TFA salt","ring closure, yield after HPLC","thioether bond, 31-membered ring, DIEA, then pyrrolidine, ACN/water, […], with chain assembly",1%
Fmoc-hGlu-Tyr-Ser-MehPhe-MeLys(Ac)-Trp(5-OH)-Trp-Gly(cPr)-MeDap-MePhe(4-F)-Lys(N3)-NH2?,"ring closure, yield after HPLC","the molecule shown is the open-chain precursor, amide bond, 31-membered ring, HATU/2,6-lutidine, DMF/DCM 1:10, 0.76 mM",64%
"((S)-2-((3S,6S,9S,12S,15S,18S,21S,24S,27S)-9-((1H-indol-3-yl)methyl)-27-acetamido-15-(4-acetamidobutyl)-6-cyclopropyl-12-((5-hydroxy-1H-indol-3-yl)methyl)-24-(4-hydroxybenzyl)-21-(hydroxymethyl)-N,4,16,19-tetramethyl-5,8,11,14,17,20,23,26,31-nonaoxo-18-phenethyl-1,4,7,10,13,16,19,22,25-nonaazacyclohentriacontane-3-carboxamido)-3-(4-fluorophenyl) propanoyl)-L-lysine TFA Salt","ring closure, yield after HPLC","amide bond, 31-membered ring, HATU/DIEA, DMF, resin, 10.0 mM, with chain assembly",2.4%
HOOC(CH2)4CO-Tyr-Ser-MehPhe-MeLys(Ac)-Trp(5-OH)-Trp-Gly(cPr)-MeDap-MePhe(4-F)-Lys(Boc)-NH2?,"ring closure, yield after HPLC","the molecule shown is the open-chain precursor, amide bond, 31-membered ring, PyAOP/Et3N, DCM, 0.52 mM",51%
"2-(4-(((11S,48S)-48-((S)-2-((3S,6S,9S,12S,15S,18S,21S,24S,27S)-9-((1H-indol-3-yl)methyl)-27-acetamido-15-(4-acetamidobutyl)-12-((5-hydroxy-1H-indol-3-yl)methyl)-24-(4-hydroxybenzyl)-6-((S)-1-hydroxyethyl)-21-(hydroxymethyl)-N,4,16,19-tetramethyl-5,8,11,14,17,20,23,26,30-nonaoxo-18-phenethyl-1,4,7,10,13,16,19,22,25-nonaazacyclotriacontane-3-carboxamido)-3-(4-fluorophenyl)propanamido)-11-carbamoyl-5,13,47-trioxo-1-((3aS,4S,6aR)-2-oxohexahydro-1H-thieno[3,4-d]imidazol-4-yl)-16,19,22,25,28,31,34,37,40,43-decaoxa-6,12,46-triazadopentacontan-52-yl) carbamoyl) piperazin-1-yl) acetic acid TFA salt","ring closure, yield after HPLC",[7],1.9%
